Measurements as given in paper PMC12406256, “Food Additives Inhibit Intestinal Drug Transporters but Have Limited Effect on In Vitro Drug Permeability” (Molecular Pharmaceutics, 2025).
pIC50: −log10 of the molar value.

Legend:
[1] = molecular target: T1, MRP2 (Homo sapiens, UniProt Q92887); experiment: Vesicular transport assay, MRP2 (CDCF substrate); format: biochemical; conditions: food additive 50 μM; CDCF 5 μM; n = 1
T1 construct: made in house; host or cells: Spodoptera frugiperda Sf9 cells, crude membrane vesicles

[2] = molecular target: T2, OATP2B1 (Homo sapiens, UniProt O94956); experiment: HEK293 uptake assay, OATP2B1 (5-carboxyfluorescein substrate); format: cell-based
T2 construct: expressed in transfected cells; host or cells: HEK293 cells (ATCC) transduced with recombinant OATP2B1 baculovirus
T2 sequence (O94956 1-709): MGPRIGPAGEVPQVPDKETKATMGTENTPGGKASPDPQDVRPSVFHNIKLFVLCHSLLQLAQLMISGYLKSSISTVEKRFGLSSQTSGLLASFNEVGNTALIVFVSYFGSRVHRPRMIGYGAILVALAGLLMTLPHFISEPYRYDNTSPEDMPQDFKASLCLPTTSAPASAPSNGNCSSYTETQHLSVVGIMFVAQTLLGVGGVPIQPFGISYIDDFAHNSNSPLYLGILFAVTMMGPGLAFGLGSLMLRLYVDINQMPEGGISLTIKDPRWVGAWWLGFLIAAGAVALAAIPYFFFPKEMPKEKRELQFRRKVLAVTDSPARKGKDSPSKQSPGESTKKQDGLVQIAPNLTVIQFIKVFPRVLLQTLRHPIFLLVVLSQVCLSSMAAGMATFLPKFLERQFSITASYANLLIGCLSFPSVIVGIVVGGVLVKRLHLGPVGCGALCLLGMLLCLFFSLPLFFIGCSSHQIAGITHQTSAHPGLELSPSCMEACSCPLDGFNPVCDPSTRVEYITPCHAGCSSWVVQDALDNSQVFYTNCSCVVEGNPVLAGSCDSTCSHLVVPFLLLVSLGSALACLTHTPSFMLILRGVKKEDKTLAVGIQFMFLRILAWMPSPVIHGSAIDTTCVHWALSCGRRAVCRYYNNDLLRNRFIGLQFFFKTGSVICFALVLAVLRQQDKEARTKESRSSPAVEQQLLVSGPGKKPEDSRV
Description: The inhibition of OATP2B1 was studied using a HEK293 cell-based uptake assay. HEK293 cells were cultured in DMEM supplemented with 10% FBS at 37 °C and 5% CO2 and seeded at 22,500 cells/well on 96-well plates coated with 0.1 mg/mL poly-D-lysine. After 24 h, the medium was replaced with a transduction mix (DMEM with 10% FBS, 5 mM sodium butyrate, and recombinant OATP2B1 or enhanced yellow fluorescent protein [eYFP, negative control] baculoviruses). The baculoviruses were produced as previously described. The uptake assay was performed after approximately 48 h. […] Test solutions also contained the substrate. Cells were washed with warm transport buffer and preincubated at 37 °C. Preincubation solutions were replaced with test solutions and incubated at 37 °C with shaking at 250 rpm. Transport was terminated by aspirating the test solution and washing the wells with an ice-cold transport buffer (150 μL) three times. Wells were left to dry, and cells were lysed with 0.1 M NaOH. […] Total protein concentration was measured from six random wells with a Pierce Coomassie (Bradford) Assay kit (Thermo Fisher Scientific) to ensure a similar protein concentration in the OATP2B1 and eYFP wells.

[3] = molecular target: T3, BCRP (Homo sapiens, UniProt Q9UNQ0); experiment: Vesicular transport assay, BCRP (Lucifer yellow substrate); format: biochemical; parameters: made in house; host or cells: Spodoptera frugiperda Sf9 cells, crude membrane vesicles
T3 sequence (Q9UNQ0 1-655): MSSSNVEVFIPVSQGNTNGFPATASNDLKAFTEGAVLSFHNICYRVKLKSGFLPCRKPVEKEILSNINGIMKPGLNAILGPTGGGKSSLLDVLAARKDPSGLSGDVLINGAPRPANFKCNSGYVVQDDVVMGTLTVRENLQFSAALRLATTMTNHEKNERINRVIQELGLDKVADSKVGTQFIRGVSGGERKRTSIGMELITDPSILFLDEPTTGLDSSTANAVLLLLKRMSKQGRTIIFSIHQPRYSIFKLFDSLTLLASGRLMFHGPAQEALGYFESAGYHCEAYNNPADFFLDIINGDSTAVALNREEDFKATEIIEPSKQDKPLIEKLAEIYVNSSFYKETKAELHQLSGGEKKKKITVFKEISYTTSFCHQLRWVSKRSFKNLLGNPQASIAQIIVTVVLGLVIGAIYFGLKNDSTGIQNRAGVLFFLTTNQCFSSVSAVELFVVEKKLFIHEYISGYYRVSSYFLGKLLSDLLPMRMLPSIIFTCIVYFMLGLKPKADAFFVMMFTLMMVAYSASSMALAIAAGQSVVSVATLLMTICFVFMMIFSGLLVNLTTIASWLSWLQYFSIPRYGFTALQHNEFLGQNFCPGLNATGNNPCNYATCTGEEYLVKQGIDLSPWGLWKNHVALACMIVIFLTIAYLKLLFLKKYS

[4] = system: Caco-2 cells; parameters: method as in not given; conditions: micellar formulation, ref not given; cited from earlier work

T1 sequence (Q92887 whole entry): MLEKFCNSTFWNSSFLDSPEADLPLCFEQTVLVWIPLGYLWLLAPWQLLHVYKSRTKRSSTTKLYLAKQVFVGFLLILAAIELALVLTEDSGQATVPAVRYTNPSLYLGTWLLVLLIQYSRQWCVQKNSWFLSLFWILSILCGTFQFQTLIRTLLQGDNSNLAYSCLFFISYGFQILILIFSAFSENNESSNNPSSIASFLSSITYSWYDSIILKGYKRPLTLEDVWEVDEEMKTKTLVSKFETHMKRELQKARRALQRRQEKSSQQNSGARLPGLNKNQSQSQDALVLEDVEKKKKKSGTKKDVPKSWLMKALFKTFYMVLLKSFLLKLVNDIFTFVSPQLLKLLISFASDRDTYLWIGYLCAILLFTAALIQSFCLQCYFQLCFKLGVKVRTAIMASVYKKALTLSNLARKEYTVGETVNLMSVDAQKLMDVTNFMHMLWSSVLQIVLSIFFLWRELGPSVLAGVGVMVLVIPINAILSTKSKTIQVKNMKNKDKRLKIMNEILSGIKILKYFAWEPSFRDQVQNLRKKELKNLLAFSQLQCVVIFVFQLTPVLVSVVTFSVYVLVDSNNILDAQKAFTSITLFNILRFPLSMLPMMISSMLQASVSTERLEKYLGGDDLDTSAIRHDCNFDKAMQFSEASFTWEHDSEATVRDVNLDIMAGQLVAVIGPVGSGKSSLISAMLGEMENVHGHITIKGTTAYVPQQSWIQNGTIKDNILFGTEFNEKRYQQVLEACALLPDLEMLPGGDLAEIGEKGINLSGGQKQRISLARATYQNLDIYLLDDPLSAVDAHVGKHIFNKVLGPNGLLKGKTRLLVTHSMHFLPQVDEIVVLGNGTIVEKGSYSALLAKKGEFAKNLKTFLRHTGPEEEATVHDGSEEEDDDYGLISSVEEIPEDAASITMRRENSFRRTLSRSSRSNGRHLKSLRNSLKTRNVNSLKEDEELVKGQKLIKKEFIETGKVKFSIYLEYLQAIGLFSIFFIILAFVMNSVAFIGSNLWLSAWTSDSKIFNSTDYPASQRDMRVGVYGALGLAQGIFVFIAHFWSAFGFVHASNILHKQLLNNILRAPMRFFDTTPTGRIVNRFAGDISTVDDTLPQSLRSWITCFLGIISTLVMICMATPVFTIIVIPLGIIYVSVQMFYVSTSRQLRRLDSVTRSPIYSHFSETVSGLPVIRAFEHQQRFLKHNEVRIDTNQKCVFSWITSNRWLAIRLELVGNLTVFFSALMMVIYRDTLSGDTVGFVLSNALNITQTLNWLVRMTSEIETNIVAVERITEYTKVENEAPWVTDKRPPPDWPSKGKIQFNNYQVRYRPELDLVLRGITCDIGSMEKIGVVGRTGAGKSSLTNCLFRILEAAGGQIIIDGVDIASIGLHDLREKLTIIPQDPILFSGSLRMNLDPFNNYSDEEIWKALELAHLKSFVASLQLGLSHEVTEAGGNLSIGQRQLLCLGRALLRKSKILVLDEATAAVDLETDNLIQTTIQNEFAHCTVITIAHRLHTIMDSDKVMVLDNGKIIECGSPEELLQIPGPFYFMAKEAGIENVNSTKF

CC1=C(/C=C/C(C)=C/C=C/C(C)=C/C=C/C=C(C)/C=C/C=C(C)/C=C/C2=C(C)CCCC2(C)C)C(C)(C)CCC1 [beta-carotene]
inhibition of MRP2 substrate accumulation [1]: did not inhibit | pIC50 ([2]; 5-carboxyfluorescein 2 μM, HEK293 cells, pH 6, n = 3, read-out: IC50 (95% CI), OATP2B1): 4.56 | inhibition at 50 μM ([2]; human, HEK293 cells transduced with recombinant OATP2B1 baculovirus, pH 6, probe 5-carboxyfluorescein 2 μM, food additive 50 μM, n = 1, read-out: inhibition of OATP2B1-mediated uptake): ≥ 50% | pIC50 ([3]; Lucifer yellow 50 μM, membrane vesicles, n = 3, read-out: IC50 (95% CI), BCRP): 4.92 | inhibition at 50 μM ([3]; Sf9-derived crude membrane vesicles expressing BCRP, pH 7, probe Lucifer yellow 50 μM, food additive 50 μM, n = 1, read-out: inhibition of BCRP substrate accumulation): ≥ 50% | applied dose recovered in the basolateral chamber [4]: ≤ 35%
